ChEMBL document CHEMBL1201861, “Genomics of Drug Sensitity in Cancer screening data, Wellcome Trust Sanger Institute”

What was measured:
SIMA = test: cells; format: functional, cell-based, Homo sapiens; conditions: Homo sapiens, SIMA
Description: SANGER: Inhibition of human SIMA cell growth in a cell viability assay.

NCI-H889 = test: cells; format: functional, cell-based; conditions: Homo sapiens
Description: SANGER: Inhibition of human NCI-H889 cell growth in a cell viability assay.

DG-75 = test: cells; format: functional, cell-based; conditions: Homo sapiens
Description: SANGER: Inhibition of human DG-75 cell growth in a cell viability assay.

IM-9 = test: SANGER: Inhibition of human IM-9 cell growth in a cell viability assay.; format: functional, cell-based
LOUCY = test: cells; format: functional, cell-based; conditions: Homo sapiens
Description: SANGER: Inhibition of human LOUCY cell growth in a cell viability assay.

ST486 = test: SANGER: Inhibition of human ST486 cell growth in a cell viability assay.; format: functional, cell-based
NCI-H1417 = test: cells; format: functional, cell-based; conditions: Homo sapiens
Description: SANGER: Inhibition of human NCI-H1417 cell growth in a cell viability assay.

NCI-H2171 = test: cells; format: functional, cell-based; conditions: Homo sapiens
Description: SANGER: Inhibition of human NCI-H2171 cell growth in a cell viability assay.

NCI-H2081 = test: cells; format: functional, cell-based; conditions: Homo sapiens
Description: SANGER: Inhibition of human NCI-H2081 cell growth in a cell viability assay.

SK-MM-2 = test: cells; format: functional, cell-based; conditions: Homo sapiens
Description: SANGER: Inhibition of human SK-MM-2 cell growth in a cell viability assay.

LB647-SCLC = test: cells; format: functional, cell-based; conditions: Homo sapiens
Description: SANGER: Inhibition of human LB647-SCLC cell growth in a cell viability assay.

NCI-H748 = test: cells; format: functional, cell-based; conditions: Homo sapiens
Description: SANGER: Inhibition of human NCI-H748 cell growth in a cell viability assay.

NCI-H1436 = test: cells; format: functional, cell-based; conditions: Homo sapiens
Description: SANGER: Inhibition of human NCI-H1436 cell growth in a cell viability assay.

DMS-153 = test: cells; format: functional, cell-based; conditions: Homo sapiens
Description: SANGER: Inhibition of human DMS-153 cell growth in a cell viability assay.

K052 = test: cells; format: functional, cell-based; conditions: Homo sapiens
Description: SANGER: Inhibition of human K052 cell growth in a cell viability assay.

NB1 = test: cells; format: functional, cell-based; conditions: Homo sapiens
Description: SANGER: Inhibition of human NB1 cell growth in a cell viability assay.

Kasumi 1 = test: cells; format: functional, cell-based; conditions: Homo sapiens
Description: SANGER: Inhibition of human KASUMI-1 cell growth in a cell viability assay.

CA46 = test: cells; format: functional, cell-based; conditions: Homo sapiens
Description: SANGER: Inhibition of human CA46 cell growth in a cell viability assay.

THP-1 = test: cells; format: functional, cell-based; conditions: Homo sapiens
Description: SANGER: Inhibition of human THP-1 cell growth in a cell viability assay.

REH = test: cells; format: functional, cell-based; conditions: Homo sapiens
Description: SANGER: Inhibition of human REH cell growth in a cell viability assay.

GDM-1 = test: cells; format: functional, cell-based; conditions: Homo sapiens
Description: SANGER: Inhibition of human GDM-1 cell growth in a cell viability assay.

NCI-H64 = test: cells; format: functional, cell-based; conditions: Homo sapiens
Description: SANGER: Inhibition of human NCI-H64 cell growth in a cell viability assay.

NCI-H345 = test: cells; format: functional, cell-based; conditions: Homo sapiens
Description: SANGER: Inhibition of human NCI-H345 cell growth in a cell viability assay.

TE-441-T = test: cells; format: functional, cell-based; conditions: Homo sapiens
Description: SANGER: Inhibition of human TE-441-T cell growth in a cell viability assay.

SUP-T1 = test: cells; format: functional, cell-based; conditions: Homo sapiens
Description: SANGER: Inhibition of human SUP-T1 cell growth in a cell viability assay.

NCI-H2141 = test: cells; format: functional, cell-based; conditions: Homo sapiens
Description: SANGER: Inhibition of human NCI-H2141 cell growth in a cell viability assay.

NCI-H1694 = test: cells; format: functional, cell-based; conditions: Homo sapiens
Description: SANGER: Inhibition of human NCI-H1694 cell growth in a cell viability assay.

BC-3 = test: cells; format: functional, cell-based; conditions: Homo sapiens
Description: SANGER: Inhibition of human BC-3 cell growth in a cell viability assay.

SCLC-21H = test: cells; format: functional, cell-based; conditions: Homo sapiens
Description: SANGER: Inhibition of human SCLC-21H cell growth in a cell viability assay.

LU-165 = test: cells; format: functional, cell-based; conditions: Homo sapiens
Description: SANGER: Inhibition of human LU-165 cell growth in a cell viability assay.

BL-41 = test: cells; format: functional, cell-based; conditions: Homo sapiens
Description: SANGER: Inhibition of human BL-41 cell growth in a cell viability assay.

RPMI 8402 = test: SANGER: Inhibition of human RPMI-8402 cell growth in a cell viability assay.; format: functional, cell-based
NCI-H1522 = test: cells; format: functional, cell-based; conditions: Homo sapiens
Description: SANGER: Inhibition of human NCI-H1522 cell growth in a cell viability assay.

EVSA-T = test: cells; format: functional, cell-based, Homo sapiens; conditions: Homo sapiens, EVSA-T
Description: SANGER: Inhibition of human EVSA-T cell growth in a cell viability assay.

EB-3 = test: cells; format: functional, cell-based; conditions: Homo sapiens
Description: SANGER: Inhibition of human EB-3 cell growth in a cell viability assay.

CHP-126 = test: cells; format: functional, cell-based; conditions: Homo sapiens
Description: SANGER: Inhibition of human CHP-126 cell growth in a cell viability assay.

SCC-3 = test: cells; format: functional, cell-based; conditions: Homo sapiens
Description: SANGER: Inhibition of human SCC-3 cell growth in a cell viability assay.

CAL-148 = test: cells; format: functional, cell-based; conditions: Homo sapiens
Description: SANGER: Inhibition of human CAL-148 cell growth in a cell viability assay.

MHH-CALL-2 = test: cells; format: functional, cell-based; conditions: Homo sapiens
Description: SANGER: Inhibition of human MHH-CALL-2 cell growth in a cell viability assay.

TE-15 = test: cells; format: functional, cell-based; conditions: Homo sapiens
Description: SANGER: Inhibition of human TE-15 cell growth in a cell viability assay.

MONO-MAC-6 = test: cells; format: functional, cell-based; conditions: Homo sapiens
Description: SANGER: Inhibition of human MONO-MAC-6 cell growth in a cell viability assay.

ARH-77 = test: cells; format: functional, cell-based; conditions: Homo sapiens
Description: SANGER: Inhibition of human ARH-77 cell growth in a cell viability assay.

KMS-12-PE = test: cells; format: functional, cell-based; conditions: Homo sapiens
Description: SANGER: Inhibition of human KMS-12-PE cell growth in a cell viability assay.

## O=C(/C=C/c1ccccc1)NC(NC(=S)Nc1cccc2cccnc12)C(Cl)(Cl)Cl (centres undefined) [SALUBRINAL]
SIMA
  IC50: > 16000 nM
NCI-H889
  IC50: > 16000 nM
DG-75
  IC50: > 16000 nM
IM-9
  IC50: > 16000 nM
LOUCY
  IC50: > 16000 nM
ST486
  IC50: 8540 nM
NCI-H1417
  IC50: > 16000 nM
NCI-H2171
  IC50: > 16000 nM
NCI-H2081
  IC50: > 16000 nM
SK-MM-2
  IC50: > 16000 nM
LB647-SCLC
  IC50: > 16000 nM
NCI-H748
  IC50: > 16000 nM
NCI-H1436
  IC50: > 16000 nM
DMS-153
  IC50: > 16000 nM
K052
  IC50: > 16000 nM
NB1
  IC50: > 16000 nM
Kasumi 1
  IC50: > 16000 nM
CA46
  IC50: > 16000 nM
THP-1
  IC50: > 16000 nM
REH
  IC50: > 16000 nM
GDM-1
  IC50: > 16000 nM
NCI-H64
  IC50: > 16000 nM
NCI-H345
  IC50: > 16000 nM
TE-441-T
  IC50: > 16000 nM
SUP-T1
  IC50: > 16000 nM
NCI-H2141
  IC50: > 16000 nM
NCI-H1694
  IC50: > 16000 nM
BC-3
  IC50: 14800 nM
SCLC-21H
  IC50: > 16000 nM
LU-165
  IC50: > 16000 nM
BL-41
  IC50: 9780 nM
RPMI 8402
  IC50: > 16000 nM
NCI-H1522
  IC50: > 16000 nM
EVSA-T
  IC50: 12900 nM
EB-3
  IC50: 9630 nM
CHP-126
  IC50: > 16000 nM
SCC-3
  IC50: > 16000 nM
CAL-148
  IC50: > 16000 nM
MHH-CALL-2
  IC50: > 16000 nM
TE-15
  IC50: > 16000 nM
MONO-MAC-6
  IC50: 10500 nM
ARH-77
  IC50: > 16000 nM
KMS-12-PE
  IC50: > 16000 nM

## CCC(=O)N1CCN(c2ccc(-n3c(=O)ccc4cnc5ccc(-c6cnc7ccccc7c6)cc5c43)cc2C(F)(F)F)CC1 [TORIN1]
SIMA
  IC50: > 1200 nM
NCI-H889
  IC50: > 1200 nM
DG-75
  IC50: 262 nM
IM-9
  IC50: > 1200 nM
LOUCY
  IC50: 63.9 nM
ST486
  IC50: 106 nM
NCI-H1417
  IC50: 697 nM
NCI-H2171
  IC50: > 1200 nM
NCI-H2081
  IC50: > 1200 nM
SK-MM-2
  IC50: 107 nM
LB647-SCLC
  IC50: 117 nM
NCI-H748
  IC50: 189 nM
NCI-H1436
  IC50: > 1200 nM
DMS-153
  IC50: > 1200 nM
K052
  IC50: 119 nM
NB1
  IC50: 279 nM
Kasumi 1
  IC50: > 1200 nM
CA46
  IC50: 509 nM
THP-1
  IC50: > 1200 nM
REH
  IC50: > 1200 nM
GDM-1
  IC50: 372 nM
NCI-H64
  IC50: 303 nM
NCI-H345
  IC50: > 1200 nM
TE-441-T
  IC50: 1040 nM
SUP-T1
  IC50: > 1200 nM
NCI-H2141
  IC50: 1190 nM
NCI-H1694
  IC50: 507 nM
BC-3
  IC50: 82 nM
SCLC-21H
  IC50: > 1200 nM
LU-165
  IC50: > 1200 nM
BL-41
  IC50: 6.96 nM
RPMI 8402
  IC50: 77.9 nM
NCI-H1522
  IC50: 649 nM
EVSA-T
  IC50: 8.92 nM
EB-3
  IC50: 36.4 nM
CHP-126
  IC50: > 1200 nM
SCC-3
  IC50: 129 nM
CAL-148
  IC50: 118 nM
MHH-CALL-2
  IC50: 335 nM
TE-15
  IC50: 44.3 nM
MONO-MAC-6
  IC50: 72.1 nM
ARH-77
  IC50: 72.8 nM
KMS-12-PE
  IC50: > 1200 nM

## Cc1cc(Nc2cc(N3CCN(C)CC3)nc(Sc3ccc(NC(=O)C4CC4)cc3)n2)n[nH]1 [TOZASERTIB]
SIMA
  IC50: > 2000 nM
NCI-H889
  IC50: > 2000 nM
DG-75
  IC50: > 2000 nM
IM-9
  IC50: > 2000 nM
LOUCY
  IC50: > 2000 nM
ST486
  IC50: 231 nM
NCI-H1417
  IC50: > 2000 nM
NCI-H2171
  IC50: > 2000 nM
NCI-H2081
  IC50: > 2000 nM
SK-MM-2
  IC50: > 2000 nM
LB647-SCLC
  IC50: 215 nM
NCI-H748
  IC50: > 2000 nM
NCI-H1436
  IC50: > 2000 nM
DMS-153
  IC50: > 2000 nM
K052
  IC50: 195 nM
NB1
  IC50: > 2000 nM
Kasumi 1
  IC50: > 2000 nM
CA46
  IC50: > 2000 nM
THP-1
  IC50: > 2000 nM
REH
  IC50: > 2000 nM
GDM-1
  IC50: > 2000 nM
NCI-H64
  IC50: > 2000 nM
NCI-H345
  IC50: > 2000 nM
TE-441-T
  IC50: > 2000 nM
SUP-T1
  IC50: > 2000 nM
NCI-H2141
  IC50: > 2000 nM
NCI-H1694
  IC50: > 2000 nM
BC-3
  IC50: > 2000 nM
SCLC-21H
  IC50: 1970 nM
LU-165
  IC50: > 2000 nM
BL-41
  IC50: 104 nM
RPMI 8402
  IC50: > 2000 nM
NCI-H1522
  IC50: > 2000 nM
EVSA-T
  IC50: > 2000 nM
EB-3
  IC50: > 2000 nM
CHP-126
  IC50: > 2000 nM
SCC-3
  IC50: > 2000 nM
CAL-148
  IC50: > 2000 nM
MHH-CALL-2
  IC50: > 2000 nM
TE-15
  IC50: 851 nM
MONO-MAC-6
  IC50: 78.8 nM
ARH-77
  IC50: > 2000 nM
KMS-12-PE
  IC50: > 2000 nM
